Results reported in the NIST ThermoML archive (doi:10.1021/je200766t).
Numbers after ± are expanded uncertainties.

Details: Liquid, Closed cell (Static) method

OCC(O)CO [glycerol]
Details	vapor or sublimation pressure [kPa]
351.8 K	0.00583 ± 0.00043
362.02 K	0.0129 ± 0.0009
372.06 K	0.0258 ± 0.0017
382.08 K	0.0544 ± 0.0034
392.18 K	0.102 ± 0.006
402.16 K	0.18 ± 0.011
412.24 K	0.315 ± 0.019
422.28 K	0.534 ± 0.032
432.45 K	0.981 ± 0.021
452.64 K	2.747 ± 0.02
462.86 K	4.099 ± 0.029

OCCCO [propan-1,3-diol]
Details	vapor or sublimation pressure [kPa]
313.2 K	0.0111 ± 0.0008
323.26 K	0.026 ± 0.0017
333.23 K	0.0574 ± 0.0036
343.16 K	0.12 ± 0.007
351.33 K	0.221 ± 0.014
361.61 K	0.43 ± 0.026
362.97 K	0.462 ± 0.028
371.65 K	0.785 ± 0.017
381.7 K	1.395 ± 0.03
391.7 K	2.376 ± 0.049
391.73 K	2.374 ± 0.049
401.64 K	3.883 ± 0.079
411.71 K	6.212 ± 0.13
421.69 K	9.628 ± 0.2
431.74 K	14.62 ± 0.096
441.73 K	21.63 ± 0.14
451.78 K	31.44 ± 0.2
461.85 K	44.81 ± 0.29
